Assay results as given in ChEMBL document CHEMBL5715949, “Discovery of a selective irreversible BMX inhibitor for prostate cancer” (ACS Chem Biol, 2013).
Calls of active or inactive are those of the source. The calls are words filed in the database; no cut-off is given here.

Tests used:
[1] = target: TGF-beta receptor type-1 (Homo sapiens) (UniProt P36897); assay: Inhibition of TGFBR1 (unknown origin) assessed as remaining activity at 1 uM by Kinome scan method relative to control
[2] = target: Myotonin-protein kinase (Homo sapiens) (UniProt Q09013); assay: Inhibition of DMPK (unknown origin) assessed as remaining activity at 1 uM by Kinome scan method relative to control
[3] = Antiproliferative activity against human RV-1 cells assessed growth inhibition incubated for 2 to 5 days by CellTiter-Glo assay; type: functional; details: time 2-5 day
[4] = target: Casein kinase I isoform delta (Homo sapiens) (UniProt P48730); assay: Inhibition of CSNK1D (unknown origin) assessed as remaining activity at 1 uM by Kinome scan method relative to control
[5] = target: Cyclin-dependent kinase 5 (Homo sapiens) (UniProt Q00535); assay: Inhibition of CDK5 (unknown origin) assessed as remaining activity at 1 uM by Kinome scan method relative to control
[6] = test system: RV-1; assay: Antiproliferative activity against human RV-1 cells assessed as reduction in cell viability at 500 to 2500 nM incubated for 5 days in presence of AZD8055 by CellTiter-Glo assay; type: functional, cell-based; details: dose 500-2500 nM, time 5.0 day
[7] = test system: BaF3; assay: Antiproliferative activity against mouse BaF3 cells expressing TEL-fused JAK2 assessed growth inhibition incubated for 2 to 5 days by CellTiter-Glo assay; type: functional; details: time 2-5 day
[8] = Inhibition of PI3K/AKT/mTOR signalling pathway in human RV-1 cells assessed as decrease in PRAS40 phosphorylation at T246 residue at 2.5 uM incubated for 4 hrs by immunoblot analysis; type: cell-based
[9] = target: Dual specificity mitogen-activated protein kinase kinase 2 (Homo sapiens) (UniProt P36507); assay: Inhibition of MEK2 (unknown origin) assessed as remaining activity at 1 uM by Kinome scan method relative to control
[10] = target: Serine/threonine-protein kinase pim-3 (Homo sapiens) (UniProt Q86V86); assay: Inhibition of PIM3 (unknown origin) assessed as remaining activity at 1 uM by Kinome scan method relative to control
[11] = target: Serine/threonine-protein kinase Nek3 (Homo sapiens) (UniProt P51956); assay: Inhibition of NEK3 (unknown origin) assessed as remaining activity at 1 uM by Kinome scan method relative to control
[12] = target: Ephrin type-B receptor 3 (Homo sapiens) (UniProt P54753); assay: Inhibition of EPHB3 (unknown origin) assessed as remaining activity at 1 uM by Kinome scan method relative to control
[13] = target: Aurora kinase A (Homo sapiens) (UniProt O14965); assay: Inhibition of AURKA (unknown origin) assessed as remaining activity at 1 uM by Kinome scan method relative to control
[14] = target: Proto-oncogene tyrosine-protein kinase Src (Homo sapiens) (UniProt P12931); assay: Inhibition of SRC (unknown origin) assessed as remaining activity at 1 uM by Kinome scan method relative to control
[15] = target: Serine/threonine-protein kinase Nek4 (Homo sapiens) (UniProt P51957); assay: Inhibition of NEK4 (unknown origin) assessed as remaining activity at 1 uM by Kinome scan method relative to control
[16] = test system: BaF3; assay: Antiproliferative activity against mouse BaF3 cells expressing TEL-fused BMX assessed growth inhibition incubated for 2 to 5 days by CellTiter-Glo assay; type: functional, cell-based
[17] = Inhibition of PI3K/AKT/mTOR signalling pathway in human RV-1 cells assessed as decrease in FOXO3A phosphorylation at S253 residue at 2.5 uM incubated for 4 hrs by immunoblot analysis; type: cell-based
[18] = test system: RV-1; assay: Down regulation of BMX protein expression in human RV-1 cells expressing wild type BMX at 5 uM incubated for 72 hrs by western blot analysis; type: functional, cell-based
[19] = Down regulation of BMX protein expression in human RV-1 cells expressing BMX C496S mutant assessed protein expression level at 2.5 uM pre incubated for 4 hrs followed by compound wash out and additon of CHX and measured after 24 hrs by immunoblot analysis (reference value: 1.01 to 1.13); type: functional
[20] = target: Death-associated protein kinase 1 (Homo sapiens) (UniProt P53355); assay: Inhibition of DAPK1 (unknown origin) assessed as remaining activity at 1 uM by Kinome scan method relative to control
[21] = target: Tyrosine-protein kinase HCK (Homo sapiens) (UniProt P08631); assay: Inhibition of HCK (unknown origin) assessed as remaining activity at 1 uM by Kinome scan method relative to control
[22] = target: cAMP-dependent protein kinase catalytic subunit beta (Homo sapiens) (UniProt P22694); assay: Inhibition of PKAC-beta (unknown origin) assessed as remaining activity at 1 uM by Kinome scan method relative to control
[23] = test system: Phosphatidylinositol 4,5-bisphosphate 3-kinase catalytic subunit alpha isoform (Homo sapiens), P42336 [H1047Y]; assay: Inhibition of PIK3CA H1047Y mutant (unknown origin) assessed as remaining activity at 1 uM by Kinome scan method relative to control
[24] = target: Myosin-IIIb (Homo sapiens) (UniProt Q8WXR4); assay: Inhibition of MYO3B (unknown origin) assessed as remaining activity at 1 uM by Kinome scan method relative to control
[25] = target: Serine/threonine-protein kinase PLK2 (Homo sapiens) (UniProt Q9NYY3); assay: Inhibition of PLK2 (unknown origin) assessed as remaining activity at 1 uM by Kinome scan method relative to control
[26] = target: LIM domain kinase 2 (Homo sapiens) (UniProt P53671); assay: Inhibition of LIMK2 (unknown origin) assessed as remaining activity at 1 uM by Kinome scan method relative to control
[27] = target: Ephrin type-A receptor 6 (Homo sapiens) (UniProt Q9UF33); assay: Inhibition of EPHA6 (unknown origin) assessed as remaining activity at 1 uM by Kinome scan method relative to control
[28] = target: Tyrosine-protein kinase TXK (Homo sapiens) (UniProt P42681); assay: Inhibition of TXK (unknown origin) assessed as remaining activity at 1 uM by Kinome scan method relative to control
[29] = Down regulation of BMX protein expression in human RV-1 cells expressing BMX C496S mutant assessed protein expression level at 2.5 uM pre incubated for 4 hrs followed by compound wash out and additon of CHX and measured after 16 hrs by immunoblot analysis (reference value: 1.01 to 1.13); type: functional
[30] = target: STE20/SPS1-related proline-alanine-rich protein kinase (Homo sapiens) (UniProt Q9UEW8); assay: Inhibition of STK39 (unknown origin) assessed as remaining activity at 1 uM by Kinome scan method relative to control
[31] = target: Phosphorylase b kinase gamma catalytic chain, skeletal muscle/heart isoform (Homo sapiens) (UniProt Q16816); assay: Inhibition of PHKG1 (unknown origin) assessed as remaining activity at 1 uM by Kinome scan method relative to control
[32] = test system: BaF3; assay: Antiproliferative activity against mouse BaF3 cells expressing TEL-fused BMX Cys496Ser assessed growth inhibition incubated for 2 to 5 days by CellTiter-Glo assay; type: functional, cell-based
[33] = target: Protein kinase C iota type (Homo sapiens) (UniProt P41743); assay: Inhibition of PRKCI (unknown origin) assessed as remaining activity at 1 uM by Kinome scan method relative to control
Sequence of Protein kinase C iota type (Homo sapiens) (P41743 whole entry): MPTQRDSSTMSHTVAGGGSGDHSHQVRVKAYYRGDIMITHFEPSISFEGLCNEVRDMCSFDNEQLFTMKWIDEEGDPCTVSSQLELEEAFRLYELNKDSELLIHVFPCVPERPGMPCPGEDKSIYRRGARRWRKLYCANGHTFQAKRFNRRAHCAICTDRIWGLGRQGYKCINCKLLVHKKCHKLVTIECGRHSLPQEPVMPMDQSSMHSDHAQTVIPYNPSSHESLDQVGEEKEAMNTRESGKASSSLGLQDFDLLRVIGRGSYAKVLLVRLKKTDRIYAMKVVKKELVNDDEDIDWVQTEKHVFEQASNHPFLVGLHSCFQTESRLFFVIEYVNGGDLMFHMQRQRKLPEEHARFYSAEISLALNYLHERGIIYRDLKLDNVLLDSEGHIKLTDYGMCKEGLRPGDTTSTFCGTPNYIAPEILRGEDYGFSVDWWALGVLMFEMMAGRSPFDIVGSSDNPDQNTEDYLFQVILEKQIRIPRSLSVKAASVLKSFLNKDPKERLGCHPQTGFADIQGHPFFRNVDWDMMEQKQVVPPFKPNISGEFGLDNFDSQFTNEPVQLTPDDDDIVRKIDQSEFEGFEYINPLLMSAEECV

Sequence of Myotonin-protein kinase (Homo sapiens) (Q09013 whole entry): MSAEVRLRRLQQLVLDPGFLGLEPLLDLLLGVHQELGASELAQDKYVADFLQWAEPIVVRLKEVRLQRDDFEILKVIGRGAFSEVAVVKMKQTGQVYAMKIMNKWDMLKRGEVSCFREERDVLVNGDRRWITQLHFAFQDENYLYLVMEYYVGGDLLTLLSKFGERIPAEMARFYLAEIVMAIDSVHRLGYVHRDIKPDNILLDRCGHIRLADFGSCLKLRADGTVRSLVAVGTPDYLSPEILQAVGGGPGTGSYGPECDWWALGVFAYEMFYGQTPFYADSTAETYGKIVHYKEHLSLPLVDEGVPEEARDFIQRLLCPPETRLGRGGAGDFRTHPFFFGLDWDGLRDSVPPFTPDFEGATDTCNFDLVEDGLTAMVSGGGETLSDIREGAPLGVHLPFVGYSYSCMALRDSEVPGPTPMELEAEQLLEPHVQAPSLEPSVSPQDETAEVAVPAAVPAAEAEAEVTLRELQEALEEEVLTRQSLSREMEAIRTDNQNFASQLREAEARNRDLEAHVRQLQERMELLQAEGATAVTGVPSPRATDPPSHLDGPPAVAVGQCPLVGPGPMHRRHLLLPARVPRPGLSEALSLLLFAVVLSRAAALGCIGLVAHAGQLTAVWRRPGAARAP
Sequence of Cyclin-dependent kinase 5 (Homo sapiens) (Q00535 whole entry, looked up): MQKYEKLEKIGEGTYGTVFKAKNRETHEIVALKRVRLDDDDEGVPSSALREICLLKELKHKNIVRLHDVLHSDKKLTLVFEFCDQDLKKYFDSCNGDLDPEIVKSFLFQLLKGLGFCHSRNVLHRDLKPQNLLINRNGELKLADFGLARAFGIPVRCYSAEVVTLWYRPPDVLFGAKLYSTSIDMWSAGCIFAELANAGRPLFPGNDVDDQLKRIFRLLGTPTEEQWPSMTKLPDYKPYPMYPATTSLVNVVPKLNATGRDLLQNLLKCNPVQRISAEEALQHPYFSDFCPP
Sequence of Death-associated protein kinase 1 (Homo sapiens) (P53355 whole entry, looked up): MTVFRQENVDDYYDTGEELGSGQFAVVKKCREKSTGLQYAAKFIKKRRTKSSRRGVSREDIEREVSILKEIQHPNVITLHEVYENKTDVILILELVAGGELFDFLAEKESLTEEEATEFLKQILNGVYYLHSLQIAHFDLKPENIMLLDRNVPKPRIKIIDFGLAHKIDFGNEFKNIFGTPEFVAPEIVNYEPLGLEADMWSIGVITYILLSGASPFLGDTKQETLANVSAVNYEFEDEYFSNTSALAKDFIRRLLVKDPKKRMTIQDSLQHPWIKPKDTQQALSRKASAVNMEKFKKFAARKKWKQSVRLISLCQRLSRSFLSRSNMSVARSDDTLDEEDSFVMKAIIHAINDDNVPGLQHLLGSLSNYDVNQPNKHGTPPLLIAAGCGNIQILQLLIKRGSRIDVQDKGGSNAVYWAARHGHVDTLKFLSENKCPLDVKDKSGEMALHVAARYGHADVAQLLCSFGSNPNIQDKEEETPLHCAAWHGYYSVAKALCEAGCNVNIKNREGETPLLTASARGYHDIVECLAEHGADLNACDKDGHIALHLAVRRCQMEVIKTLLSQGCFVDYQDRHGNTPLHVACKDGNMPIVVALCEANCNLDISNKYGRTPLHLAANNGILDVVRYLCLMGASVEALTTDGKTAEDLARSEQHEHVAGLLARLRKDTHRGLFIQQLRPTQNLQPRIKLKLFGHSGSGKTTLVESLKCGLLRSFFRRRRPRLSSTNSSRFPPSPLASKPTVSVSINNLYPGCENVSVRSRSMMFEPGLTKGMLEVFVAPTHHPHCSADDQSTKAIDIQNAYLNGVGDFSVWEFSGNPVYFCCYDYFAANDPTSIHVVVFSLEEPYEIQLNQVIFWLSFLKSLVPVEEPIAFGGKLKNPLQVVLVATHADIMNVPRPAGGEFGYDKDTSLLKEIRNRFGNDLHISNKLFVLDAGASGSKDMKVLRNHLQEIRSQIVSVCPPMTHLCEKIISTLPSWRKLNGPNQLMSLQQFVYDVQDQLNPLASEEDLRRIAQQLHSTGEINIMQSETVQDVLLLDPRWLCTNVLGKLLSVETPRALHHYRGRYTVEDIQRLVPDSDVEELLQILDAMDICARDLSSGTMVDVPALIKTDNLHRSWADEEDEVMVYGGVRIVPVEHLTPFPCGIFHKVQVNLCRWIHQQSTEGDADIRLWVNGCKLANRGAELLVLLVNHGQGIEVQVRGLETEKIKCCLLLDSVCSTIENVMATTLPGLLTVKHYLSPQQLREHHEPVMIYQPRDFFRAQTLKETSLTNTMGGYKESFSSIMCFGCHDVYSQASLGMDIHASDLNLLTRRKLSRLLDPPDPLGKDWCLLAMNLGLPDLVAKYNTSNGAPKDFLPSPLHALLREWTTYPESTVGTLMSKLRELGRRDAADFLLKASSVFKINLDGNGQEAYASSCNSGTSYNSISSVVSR
Sequence of Serine/threonine-protein kinase PLK2 (Homo sapiens) (Q9NYY3 whole entry, looked up, the tested form may be a part): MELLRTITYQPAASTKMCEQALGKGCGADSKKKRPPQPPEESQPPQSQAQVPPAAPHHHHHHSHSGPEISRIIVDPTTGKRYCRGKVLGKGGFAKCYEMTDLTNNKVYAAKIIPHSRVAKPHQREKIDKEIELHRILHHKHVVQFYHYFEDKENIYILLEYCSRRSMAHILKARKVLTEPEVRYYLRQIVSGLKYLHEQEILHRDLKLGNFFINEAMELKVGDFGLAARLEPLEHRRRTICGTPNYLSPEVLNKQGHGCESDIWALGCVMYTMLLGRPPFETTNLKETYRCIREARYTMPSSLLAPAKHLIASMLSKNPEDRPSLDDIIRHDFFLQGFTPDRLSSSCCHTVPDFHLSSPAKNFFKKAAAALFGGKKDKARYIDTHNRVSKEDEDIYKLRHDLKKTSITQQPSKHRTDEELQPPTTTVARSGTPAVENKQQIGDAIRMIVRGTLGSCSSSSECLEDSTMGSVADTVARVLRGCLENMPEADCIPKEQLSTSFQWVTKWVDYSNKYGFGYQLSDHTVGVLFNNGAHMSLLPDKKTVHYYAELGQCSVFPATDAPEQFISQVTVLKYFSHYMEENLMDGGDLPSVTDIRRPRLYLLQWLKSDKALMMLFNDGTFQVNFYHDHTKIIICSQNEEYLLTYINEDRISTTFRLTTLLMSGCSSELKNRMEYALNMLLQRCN
Sequence of Tyrosine-protein kinase TXK (Homo sapiens) (P42681 whole entry): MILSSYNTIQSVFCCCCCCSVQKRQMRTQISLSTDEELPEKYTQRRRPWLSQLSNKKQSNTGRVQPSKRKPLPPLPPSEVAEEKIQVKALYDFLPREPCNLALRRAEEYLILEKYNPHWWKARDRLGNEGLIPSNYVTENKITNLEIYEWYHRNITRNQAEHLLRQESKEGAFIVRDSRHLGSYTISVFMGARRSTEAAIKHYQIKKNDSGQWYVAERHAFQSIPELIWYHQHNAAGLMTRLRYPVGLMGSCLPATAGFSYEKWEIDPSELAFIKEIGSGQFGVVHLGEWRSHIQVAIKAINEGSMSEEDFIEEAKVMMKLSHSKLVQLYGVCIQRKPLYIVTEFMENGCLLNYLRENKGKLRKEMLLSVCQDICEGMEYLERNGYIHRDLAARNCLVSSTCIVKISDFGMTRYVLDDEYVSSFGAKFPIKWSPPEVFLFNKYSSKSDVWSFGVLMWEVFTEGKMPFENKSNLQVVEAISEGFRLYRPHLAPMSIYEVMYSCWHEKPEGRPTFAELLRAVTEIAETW
Sequence of Dual specificity mitogen-activated protein kinase kinase 2 (Homo sapiens) (P36507 whole entry): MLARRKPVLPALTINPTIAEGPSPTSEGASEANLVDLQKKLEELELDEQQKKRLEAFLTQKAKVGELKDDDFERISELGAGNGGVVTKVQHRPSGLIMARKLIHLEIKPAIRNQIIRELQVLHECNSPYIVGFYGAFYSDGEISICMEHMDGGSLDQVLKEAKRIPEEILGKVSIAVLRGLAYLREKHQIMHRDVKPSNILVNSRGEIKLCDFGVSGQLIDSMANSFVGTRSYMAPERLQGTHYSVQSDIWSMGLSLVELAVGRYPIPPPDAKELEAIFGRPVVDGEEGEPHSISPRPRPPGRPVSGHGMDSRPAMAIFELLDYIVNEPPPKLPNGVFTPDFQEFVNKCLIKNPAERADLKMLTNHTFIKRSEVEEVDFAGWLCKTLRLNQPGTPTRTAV

C=CC(=O)Nc1cc(-n2c(=O)ccc3cnc4ccc(-c5ccc(NS(C)(=O)=O)cc5)cc4c32)ccc1C
Activity [1]: 97% | Activity [2]: 91% | GI50 [3]: 2530 nM | Activity [4]: 84% | Activity [5]: 88% | Activity [6]: Active | GI50 [7]: 5830 nM | inhibition [8]: inactive | Activity [9]: 96% | Activity [10]: 83% | Activity [11]: 98% | Activity [12]: 83% | Activity [13]: 75% | Activity [14]: 92% | Activity [15]: 81% | IC50 [16]: 569 nM | GI50 ([16]; time 2-5 day): 25 nM | inhibition [17]: inactive | Activity [18]: Active | Activity [19]: 0.83 | Activity [20]: 96% | Activity [21]: 97% | Activity [22]: 79% | Activity [23]: 88% | Activity [24]: 92% | Activity [25]: 72% | Activity [26]: 92% | Activity [27]: 96% | Activity [28]: 25% | Activity [29]: 0.74 | Activity [30]: 68% | Activity [31]: 86% | IC50 [32]: > 10000 nM | Activity [33]: 84%
